We go through three compounds from EPA's ToxValDB 9.5 (doi:10.2903/j.efsa.2020.6230).

≈ marks a conversion by molar mass, not a printed value.

The test system of one series is Rattus norvegicus. The settings on record: acute; oral; mortality.
The subject of a further series is Oncorhynchus mykiss. The conditions noted are these: for LC50: acute, duration: 96 hours, mortality.
In the next series the test system is Pleurozium sp. The conditions noted are these: acute; duration: 72 hours; growth.
In a further series the test system is Salmo salar. The conditions noted are these: acute; duration: 96 hours; mortality.
The test system of the next series is Colinus virginianus. The conditions noted are these: acute; oral; mortality.
In the next series the test system is Oryctolagus sp. The settings on record: developmental; development.
For a further series, the system named is Apis mellifera. The conditions noted are these: acute, duration: 48 hours, mortality.
A further series relates to Folsomia candida. The settings on record: chronic/long-term; reproduction.
In the next series the test system is Anas platyrhynchos. The settings on record: reproductive.
A further series deals with Daphnia magna. The settings on record: chronic/long-term; duration: 28 days; reproduction.
The subject of the next series is Tagia sp. The conditions noted are these: chronic/long-term; reproduction.
Another series relates to Mus musculus. The settings on record: acute; oral; mortality.
For a further series, the system named is Aphidius rhopalosiphi. As to the kind of experiment: LR50; higher = less toxic. The settings on record: not reported; mortality.

For `O=C1NC(=O)C2CC=CCC12` (configuration not stated) [1,2,3,6-Tetrahydrophthalimide], the LD50 in the series with Rattus norvegicus was at least 1470 mg/kg-day. Besides, the LC50 in the series on Oncorhynchus mykiss is above 120 µg/mL.

Take `NC(=O)C1CC=CCC1C(=O)O` (configuration not stated) [6-[Hydroxy(imino)methyl]cyclohex-3-ene-1-carboxylic acid]: the NOEC in the series with Pleurozium sp. was 32 mg/L. The compound also yielded an LC50 with Oncorhynchus mykiss above 120 µg/mL.

Turning to `O=C1C2CC=CCC2C(=O)N1SC(Cl)(Cl)Cl` (configuration not stated) [Captan], the LC50 in the series with Salmo salar amounted to 0.0913 µg/mL (≈ 0.304 µM); in the series with Oncorhynchus mykiss, 0.0147 µg/mL (≈ 0.0489 µM). The LD50 in the series on Colinus virginianus was above 2000 mg/kg-day; in the series with Apis mellifera (dermal), above 200 µg/piece; in the series on Apis mellifera (oral, unspecified) it was above 100 µg/piece; in the series on Mus musculus, 3720 mg/kg-day. Besides, the no observed adverse effect level (NOAEL) with Oryctolagus sp. came out at 20 mg/kg-day. Also, the NOEC in the series with Folsomia candida came to 100 mg/kg; in the series with Oncorhynchus mykiss (chronic/long-term, duration: 95 days, growth), 0.2 mg/L; in the series on Daphnia magna it was 0.4 mg/L; in the series with Tagia sp. it was 7.3 mg/kg. The compound also showed an NOEL in the series with Anas platyrhynchos of 74.4 mg/kg-day. The same compound showed an LR50 in the series with Aphidius rhopalosiphi above 3200 g/ha.
